# Measurements: patent US12544451B2, “Intracellular delivery compositions” (BIOND BIOLOGICS LTD., priority 2021, dated 2026)
# What was measured:
# A375 cells [1] = experiment: Internalization of PEI-modified IgG (4.5 PEIs) in the presence of endocytosis inhibitors; type: cell-based; details: overnight, PEI-modified mouse IgG (4.5 PEIs)
# Description: Cationized moieties are thought to internalize using a natural endocytosis mechanism. The two relevant endocytosis mechanisms are caveolin- and clathrin-mediated endocytosis. The exact mechanism of internalization was elucidated by performing the internalization of PEI-modified IgG in the presence of known specific endocytosis inhibitors. A375 cells were incubated overnight with PEI-modified mouse IgG (4.5 PEIs) in the presence of Clathrin inhibitors (Amantadine or Chlorpromazine) or a Caveolin inhibitor (Genistein). […] This corroborates that Caveolin-mediated endocytosis is exploited by the PEI-modified payloads for internalization as inhibition of Clathrin-mediated endocytosis caused a compensatory increase in Caveolin-mediated endocytosis in the cells.
# A375 cells [2] = experiment: Intracellular BRAF inhibition: Annexin V apoptosis assay in A375 cells (IncuCyte, CellTiter-Glo normalisation); type: cell-based; details: 1 μM or 3 μM agent, BRAF inhibitor at 10 μM
# Description: FIGS. 42A-42D. A375 cells were seeded in 96 plate wells for 24 h to allow cells adherence (1500 cells/well). To each well a sample of the tested agent was added at the desired concentration (42A-42B) 1 μM; (42C-42D) […], except BRAF inhibitor, PF-04880594 that was added at 10 μM. (42A, 42C) Red area obtained from the Annexin V red reagent, a commonly used fluorescent dye identifying apoptotic cells, monitored in IncuCyte®. (42B, 42D) Red area normalized to the value obtained by CellTiter-Glo corresponding to intact cells.
# Random modification was achieved by reaction of 1C5-Hel20-LC with PEI1800 in the presence of EDC, to give 1C5-Hel20-LC-r-C(O)—NH-PEI1800 (S8). The different constructs of payload conjugated directly to PEI were evaluated for their ability to penetrate A375 cells and induce apoptosis following BRAF inhibition. […]
# 1C5-Hel20-LC-HSA-PEI (S5C)×n conjugates were prepared by reduction of 1C5-Hel20-LC and activation with 2,2′-Dithiobis(5-nitropyridine) followed by conjugation to HSA-PEI×n. Intracellular BRAF inhibition by the different constructs was evaluated by a functional assay in A375 cells. The different conjugates were incubated with A375 cells in the presence of Annexin V red reagent, for 6 days, while monitoring fluorescence in IncuCyte® to identify apoptotic cells (FIG. 42A, C). […]
# [3] = Zeta potential measurement (Zeta Sizer Ultra); type: physicochemical; details: alternative carriers and HSA before and after PEI modification; STD in separate column
# Description: Zeta potential measurements were preformed using Zeta Sizer Ultra (Malvern Instruments). Samples' buffers were exchanged to 1 mM NaCl at 1 mg/mL protein concentration. 20 μL from each sample was loaded in zeta cells (DTS1070), five repeats for each sample were measured and the mean zeta potential in mV was obtained for each repeat. The average for the five measurements is reported with the standard deviation. The measurements were performed under the following conditions: temperature 25° C.; run numbers for each repeat 10-40; equilibration time: 60 seconds, without pause after sub runs; 60 seconds pause between repeats; voltage was selected automatic and monomodal analysis method was used in the data processing.
# Zeta potential measurements were preformed using Zeta Sizer Ultra (Malvern Instruments), samples buffer was exchanged to 1 mM NaCl at 1 mg/mL protein concentration. 20 μL from each sample were loaded in zeta cells (DTS1070), five repeats for each sample were measured and the mean zeta potential in mV was obtained.
compound,measurement,setting,value
CN(C)CCCN1c2ccccc2Sc2ccc(Cl)cc21 [Chlorpromazine],effect on internalization of PEI-modified IgG,A375 cells [1],resulted in increased internalization
O=c1c(-c2ccc(O)cc2)coc2cc(O)cc(O)c12 [Genistein],effect on internalization of PEI-modified IgG,A375 cells [1],inhibited the internalization of PEI-modified IgG
"N#CCCNc1nccc(-c2cn(CC(F)F)nc2-c2cnc3[nH]ccc3c2)n1 [PF-04880594, reference compound]",apoptosis (Annexin V red signal),A375 cells [2],highly potent cell killer
Fibrinogen,Zeta potential (mV),[3],−1.4 mV
